Source: article PMC4168161, “A novel approach for the discovery of chemically diverse anti-malarial compounds targeting the Plasmodium falciparum Coenzyme A synthesis pathway” (Malaria Journal, 2014)
“And” between values parts separate entries of the source, which are not always exact repeats. Identical values can stand only once.

Assays:
[1] = tested on: Plasmodium falciparum strain 3D7; assay: Plasmodium falciparum growth inhibition imaging assay; format: cell-based; conditions: for parasite growth inhibition: 2 μM; for IC50: P. falciparum 3D7, 72 hr; for IC50 / P. falciparum growth: n = 3; for P. falciparum growth: 3D7, dose response
Experimental: (§1) In vitro parasite culture was maintained in RPMI with 10 mM Hepes (Life Technologies), 50 μg/ml hypoxanthine (Sigma) and 5 mg/ml AlbuMAX II® (Life Technologies). Human O + erythrocytes were obtained from the Australian Red Cross Blood Service (Agreement No: 13-04QLD-09). The parasites were maintained at 2-8% parasitaemia (% P) at 5% haematocrit (% H), incubated at 37°C, 5% CO2, 5%O2 and 90% N2 and 95% humidity. The well-established P. falciparum imaging assay was modified to allow assessment of chemical rescue with CoA. In brief, sorbitol (5% w/v) synchronization was performed twice, approximately 8 hr apart, on each synchronization day for two consecutive ring cycles, i.e., on day 1 and 3 of assay preparation. On day 2 the culture was split to approximately 2% trophozoite parasitaemia. On day 4 the culture was split to 1-1.5% trophozoite parasitaemia, which yielded approximately 8% ring parasitaemia after 48 hr (on day 5, i.e., the day of the assay set-up). Compound stocks (10 mM in 100% DMSO) were diluted 1:25 in sterile water, less than 24 hr prior to use. An additional 1:10 dilution was performed, resulting in a 1:250 overall compound dilution and a final DMSO concentration of 0.4%. For initial screening, compounds were tested at a final 2 μM concentration. For dose response curves of the active compounds, a semi-logarithmic serial dilution (containing three data points per log) was prepared at 40 μM top concentration for test compounds and 2 μM for the positive control, artemisinin. The known P. falciparum CoA synthesis inhibitor, panthenol, was prepared as a 100 mM solution in 4% DMSO. The final concentration of the dose response curve of panthenol started at 10 mM and was serially diluted down to 100 nM. CoA was dissolved in water. The final CoA concentration for optimal rescue results was determined for each CoA batch and ranged between 0.8-2 mM. Five μl of the 1:25 diluted test compound or control solutions were added to 384-well CellCarrier imaging plates (PerkinElmer). For the chemical rescue, 5 μl of CoA solution were added to ‘rescue’ wells and 5 μl water to all control and reference wells, respectively. Parasite culture was added to a final concentration of 1% parasitaemia (% P) and 0.3% haematocrit (% H). Plates were incubated for 72 hr at 37°C, 5% CO2 and 95% humidity. On day 8 the permeabilization and nuclear staining buffer was prepared in PBS containing 10 μg/ml saponin, 0.01% triton X, 5 mM EDTA (all: Sigma) and 0.5 μg/ml 4′,6-diamidino-2-phenylindole (DAPI; Life Technologies). The plates were left for at least 4 hr (typically overnight), before confocal imaging on an Opera™ High Content Screening Platform (PerkinElmer) at 405 nm excitation with a 20x water objective. Automated primary image analysis was performed concurrent with the imaging process, utilizing an Acapella® software (PerkinElmer) script to determine the number of parasites based on object size and fluorescence intensity. Determination of the % growth compared to controls (2 μM artemisinin as positive and 0.4% DMSO as negative control) was performed in Microsoft® Excel 2010. Statistical analysis including IC50 determination and graphical output was performed in GraphPad Prism® 5 using non-linear regression variable slope curve fitting.

HEK293 cells [2] = assay: HEK293 viability assay (resazurin); format: cell-based, human; conditions: for IC50: HEK293, 72 hr, top concentration 40 μM, n = 3
Experimental: (§2) To assess cytotoxicity of compounds in dose response, a resazurin-based assay was utilized to determine cell viability. In brief, HEK293 cells were grown in DMEM medium (Life Technologies) containing 10% foetal calf serum (FCS; Gibco). Cells were trypsinized, counted and seeded at 2,000 cells per well in 45 μl media into TC-treated 384-well plates (Falcon) and left to adhere overnight at 37°C, 5% CO2 and 95% humidity.
(§3) Test compounds were prepared as described above, to give a top final test concentration of 40 μM, 0.4% DMSO. Plates were incubated for 72 hr at 37°C, 5% CO2 and 95% humidity, then the media was removed and replaced by 35 μl of 44 μM resazurin in DMEM without FCS. The plates were incubated for another 4-6 hr at 37°C, 5% CO2 and 95% humidity before reading on an EnVision® Plate Reader (PerkinElmer) using fluorescence excitation/emission settings of 530 nm/595 nm. Determination of the% growth compared to controls (40 μM puromycin as positive and 0.4% DMSO as negative control) was performed in Microsoft® Excel 2010. Statistical analysis including IC50 determination and graphical output was performed in GraphPad Prism® 5 using nonlinear regression variable slope curve fitting.

[3] = tested on: P. falciparum CoA synthesis pathway; assay: Coenzyme A chemical rescue assay on P. falciparum; format: cell-based, Plasmodium falciparum; conditions: for CoA rescue (relative parasite number, % of untreated control): at 2 μM compound, with CoA supplementation; for IC50 shift upon CoA supplementation / antiplasmodial activity of control compounds upon CoA supplementation: eight-point dose response, n = 2; for IC50 shift upon CoA supplementation: fixed CoA (0.8-2 mM); for antiplasmodial activity of control compounds upon CoA supplementation: fixed CoA
Experimental: as §1, with “The” for “In vitro parasite culture was maintained in RPMI with 10 mM Hepes (Life Technologies), 50 μg/ml hypoxanthine (Sigma) and 5 mg/ml AlbuMAX II® (Life Technologies). Human O + erythrocytes were obtained from the Australian Red Cross Blood Service (Agreement No: 13-04QLD-09). The parasites were maintained at 2-8% parasitaemia (% P) at 5% haematocrit (% H), incubated at 37°C, 5% CO2, 5%O2 and 90% N2 and 95% humidity. The”, “For dose response curves of the active compounds, a semi-logarithmic serial dilution (containing three data points per log) was prepared at 40 μM top concentration for test compounds and 2 μM for the positive control, artemisinin.” left out, “The final CoA concentration for optimal rescue results was determined for each CoA batch and ranged between 0.8-2 mM.” left out, “fitting. Cell-based high throughput screening (HTS) entails the distinct benefit that positive hits have already proven effective against the live parasite within its natural host erythrocyte environment. Modifications of an image-based assay were undertaken to identify compounds that interfere with the P. falciparum CoA pathway. The modification involved a chemical rescue approach adapted from a similar method used to investigate apicoplast function. The principle idea of the chemical rescue approach is that supplementation of an unbranched pathway’s end product – in this case CoA - should abrogate, or at least alleviate, negative growth effects of compounds inhibiting any step in the pathway. […] To identify new potential CoA synthesis inhibitors, the CoA chemical rescue approach was used to screen 144 compounds with known antiplasmodial activity identified by HTS in the Avery laboratory, in addition to the MMV malaria box. […] Compounds which rescued growth to at least 50% of control values and two-fold difference compared to treatment alone, were regarded as partial rescue hits.” for “fitting.”

HEK293 cells [4] = assay: CoA chemical rescue on HEK293 cells; format: cell-based, human; conditions: dose response with and without CoA, n = 2
Experimental: as §2
as §3, with “Plates” for “Test compounds were prepared as described above, to give a top final test concentration of 40 μM, 0.4% DMSO. Plates”

| SMILES | IC50 (HEK293 cells [2]) [µM] | CoA rescue (relative parasite number, % of untreated control) [3] [% rescue at 2 μM] | IC50 shift upon CoA supplementation [3] | cytotoxic effect on HEK293 cells upon CoA addition (HEK293 cells [4]) | antiplasmodial activity of control compounds upon CoA supplementation [3] | other results |
| --- | --- | --- | --- | --- | --- | --- |
| Cc1ccc(C(C)C)c(OCc2nc3ccccc3n2C)c1 [Amb1541406] | > 40 | 80 | 1.5 times | – | – | inhibition of P. falciparum 3D7 ([1]; at 40 μM): 85% inhibition at 40 μM |
| OC1CCCCC1C1(NC(=S)Nc2ccccc2)CCCCC1 (stereo not shown) [Amb2368822/(MMV665980)] | > 40 | 80 | more than doubled | – | – | parasite growth inhibition ([1]; MMV malaria box screen): 27%; parasite growth inhibition ([1]; original single dose screen, focussed compound library plate): 66%; parasite growth inhibition ([1]; retested twice from freshly dissolved solid): 98% and 90%; compound stability (inferred from lower activity of stored stock solution) ([1]; 100% DMSO stock at -20°C): potentially unstable; SI (selectivity index) ([1]; HEK293 IC50 value divided by P. falciparum IC50 value): > 6.3; IC50 [1]: 6.31 µM; IC50 ([1]; listed as Amb2368822): 6.3 µM |
| CC(=O)C1=C(c2ccccc2)C(=O)c2ccccc2C1=O [Amb4317088] | 2.33 | 80 | more than doubled | reduced upon CoA addition | – | IC50 [1]: 1.23 µM |
| CC(C)(COP(=O)(O)OP(=O)(O)OC[C@H]1O[C@@H](n2cnc3c(N)ncnc32)[C@H](O)[C@@H]1OP(=O)(O)O)[C@@H](O)C(=O)NCCC(=O)NCCS [CoA, Coenzyme A] | – | – | – | – | – | P. falciparum growth [1]: not significantly altered |
| CC(C)(CO)C(O)C(=O)NCCCO (stereo not shown) [Panthenol, panthenol, reference compound] | – | – | – | completely negate | counteracted by CoA | P. falciparum growth [1]: dose-dependent P. falciparum growth inhibitor; cytotoxicity against HEK293 cells (HEK293 cells [2]; at 40 μM): cytotoxic effect; CoA rescue of growth inhibitory effect ([3]; CoA supplementation between 1 and 2 mM): fully rescued |
| C[C@@H]1CC[C@H]2[C@@H](C)C(=O)O[C@@H]3O[C@@]4(C)CC[C@@H]1[C@]32OO4 [artemisinin, reference compound] | – | – | – | – | not reduced by CoA supplementation | – |
| COc1ccc(C[C@H](N)C(=O)N[C@H]2[C@@H](O)[C@H](n3cnc4c(N(C)C)ncnc43)O[C@@H]2CO)cc1 [puromycin, reference compound] | – | – | – | no impact | – | – |
| CCc1nc(N)nc(N)c1-c1ccc(Cl)cc1 [pyrimethamine, reference compound] | – | – | – | – | not reduced by CoA supplementation | – |
